Numbers after ± are expanded uncertainties.

For data set [1] the following is noted: Crystal; DTA.
Data set [2] can be described thus: Molar enthalpy of transition or fusion. The following applies: Crystal; DSC.

Regarding `C[C@@H]1O[C@@H](O[C@H]2[C@H](Oc3cc(O)c(C(=O)CCc4ccc(O)cc4)c(O)c3)O[C@H](CO)[C@@H](O)[C@@H]2O)[C@H](O)[C@H](O)[C@H]1O` [naringin dihydrochalcone], the Normal melting temperature in data set [1] is 159.07 ± 0.53 °C. Further, the “Molar enthalpy of transition or fusion” value in data set [2] turned out to be 7.08 ± 0.454 kcal/mol.

For the origin of these results see the NIST ThermoML archive (doi:10.1021/acs.jced.6b00543).
